Laboratory results: patent US20260091015A1, “TREATING IRON DEFICIENCY WITH FERRIC CARBOXYMALTOSE” (PHARMACOSMOS HOLDING A/S, priority 2018, published 2026)

Legend:
[1] = clinical trials and case reports; Wolf et al., 2013; cited from earlier work
human intact FGF23 = test: Intact FGF23 (iFGF23) over time, two-site ELISA, trials IDA-04/IDA-05; assay type: in vivo; conditions: single dose 1000 mg at baseline
Description: The trial was a randomized, open-label, comparative trial. Subjects with Iron Deficiency Anaemia (IDA) were randomized 1:1 to one treatment course of one of the following treatments: • Group A: iron isomaltoside 1000 (Monofer®, Pharmacosmos, Holbok, Denmark, termed iron isomaltoside in the following), 1000 mg at baseline • Group B: ferric carboxymaltose (Ferinject®/Injectafer®, Vifor Inc, Switzerland), 750 mg at baseline and day 7, cumulative dose: 1500 mg
The secondary safety endpoints were the following: • Incidence of s-phosphate below 1.0 mg/dL at any time from baseline to day 35 • Time with hypophosphatemia (i.e. time with s-phosphate <2.0 mg/dL) from baseline to day 35 • Proportion of subjects with hypophosphatemia at day 35 • Absolute [Δ] and relative [%] changes in s-phosphate from baseline to 1, 7, 8, 14, 21, and 35 • Fractional phosphate urinary excretion at 1, 7, 8, 14, 21, and 35 • Change in iFGF23, cFGF23, vitamin D (25, 1,25, 24,25), PTH, and ionized calcium from baseline to 1, 7, 8, 14, 21, and 35 • Type and incidence of AEs • Serious or severe hypersensitivity reaction starting on or after the first dose of randomized treatment (i.e. treatment emergent). The hypersensitivity terms were defined as standardised Medical Dictionary for Regulatory Activities query (SMQ) terms. […]
The following safety laboratory assessments were analysed: • S-phosphate: inorganic phosphorous forms an ammonium phosphomolybdate complex having the formula (NH4)3[PO4](MoO3)12 with ammonium molybdate in the presence of sulfuric acid. The complex was determined photometrically in the ultraviolet region (340 nm) of the spectrum using the Roche Modular and Cobas Analyzer. • iFGF23 and cFGF23: the human intact FGF23 was measured by the 2nd generation Elisa kit manufactured by Immonotropics, Inc, San Clemente, CA. […] The human C-terminal FGF23 was measured by the Elisa kit manufactured by Immonotropics, Inc, San Clemente, CA. […] After evaporation under nitrogen, the residue was reconstituted and analyzed using Liquid Chromatography (LC) with Tandem Mass Spectrometric detection (MS/MS). […] A direct relationship exists between the amount of PTH present in the patient sample and the amount of relative light units (RLUs) detected by the system. • Ionized calcium: Measured by the IL GEM Premier 3500 PAK cartridge. […]

Substance	risk for iFGF23-mediated reduction of serum phosphate levels and development of hypophosphatemia [1]	change of the iFGF23 level (human intact FGF23)
iron polymaltose	highest risk	–
saccharated iron oxide	highest risk	–
iron isomaltoside 1000 [IIM]	–	essentially no change
